Results as given in ChEMBL document CHEMBL4385664, “Targeting TRAIL” (Bioorg Med Chem Lett, 2019).

Experiment: Activation of TRAIL receptor in human T98G cells assessed as reduction in cel viability by Cell-titer-Glo luminescent cell viability assay
Assay type: cell-based

SMILES | IC50
COc1ccc(N2C(=N)S/C(=C\c3ccc(-c4ccccc4)o3)C2=O)cc1 | > 30 µM
N=C1S/C(=C\c2ccc(-c3ccc4c(c3)C(=O)NC4=O)o2)C(=O)N1c1ccc(Cl)cc1 | 25 µM
COc1cccc(N2C(=N)S/C(=C\c3ccc(-c4ccc5c(c4)C(=O)NC5=O)o3)C2=O)c1 | 10 µM
COc1ccc(/C=C2\SC(=N)N(c3ccc(OC)cc3)C2=O)cc1 | > 30 µM
N=C1S/C(=C\c2ccc(-c3ccc4c(c3)C(=O)NC4=O)o2)C(=O)N1c1ccc(F)cc1 | 20 µM
N=C1S/C(=C\c2ccc(-c3ccc4c(c3)C(=O)NC4=O)o2)C(=O)N1c1ccc(C(F)(F)F)cc1 | > 30 µM
COc1ccc(N2C(=N)S/C(=C\c3ccc(-c4ccncc4)o3)C2=O)cc1 | 20 µM
N=C1S/C(=C\c2ccc(-c3ccc4c(c3)C(=O)NC4=O)o2)C(=O)N1c1ccccn1 | > 30 µM
COc1ccc(N2C(=N)S/C(=C\c3ccc(-c4ccc5c(c4)C(=O)N(C)C5=O)o3)C2=O)cc1 | > 30 µM
CN1C(=N)S/C(=C\c2ccc(-c3ccc4c(c3)C(=O)NC4=O)o2)C1=O | > 30 µM
COc1ccc(N2C(=N)S/C(=C\c3ccc(-c4cncnc4)o3)C2=O)cc1 | > 30 µM
N=C1S/C(=C\c2ccc(-c3ccc4c(c3)C(=O)NC4=O)o2)C(=O)N1c1ccc(Br)cc1 | 2 µM
Cc1csc(N2C(=N)S/C(=C\c3ccc(-c4ccc5c(c4)C(=O)NC5=O)o3)C2=O)n1 | > 30 µM
COc1ccc(N2C(=N)S/C(=C\c3ccc(-c4ccc5c(c4)C(=O)NC5=O)s3)C2=O)cc1 | 10 µM
N=C1S/C(=C\c2ccc(-c3ccc4c(c3)C(=O)NC4=O)o2)C(=O)N1c1ncc[nH]1 | 20 µM
COc1ccc(N2C(=O)S/C(=C\c3ccc(-c4ccc5c(c4)C(=O)NC5=O)o3)C2=O)cc1 | > 30 µM
N=C1S/C(=C\c2ccc(-c3ccc4c(c3)C(=O)NC4=O)o2)C(=O)N1c1ccccc1 | > 30 µM
COc1ccc(N2C(=N)S/C(=C\c3ccc(-c4ccc(OC)c(F)c4)o3)C2=O)cc1 | 20 µM
CN(C)c1ccc(N2C(=N)S/C(=C\c3ccc(-c4ccc5c(c4)C(=O)NC5=O)o3)C2=O)cc1 | > 30 µM
COc1ccc(N2C(=N)S/C(=C\c3ccc(-c4cccnc4)o3)C2=O)cc1 | 25 µM
C=CCN1C(=N)S/C(=C\c2ccc(-c3ccc4c(c3)C(=O)NC4=O)o2)C1=O | > 30 µM
COc1ccc(N2C(=N)S/C(=C\c3ccc(-c4ccc5c(c4)C(=O)NC5=O)o3)C2=O)cc1 | > 30 µM
Cc1ccc(N2C(=N)S/C(=C\c3ccc(-c4ccc5c(c4)C(=O)NC5=O)o3)C2=O)cc1 | > 30 µM
COc1ccc(N2C(=N)S/C(=C\c3ccc(-c4ccc5c(c4)C(=O)N(Cc4ccccc4)C5=O)o3)C2=O)cc1 | > 30 µM
